Source: patent publication US20230051589A1, “COMPOUNDS AND COMPOSITIONS FOR TREATING CONDITIONS ASSOCIATED WITH NLRP ACTIVITY” (Novartis AG, priority 2018, published 2023)

system: IL-1β production in PMA-differentiated THP-1 cells; assay: IL-1β production in PMA-differentiated THP-1 cells stimulated with gramicidin (hTHP-1 assay, 2% fetal bovine serum; Procedures 1-3); format: cell-based, human; conditions: Homo sapiens, THP-1, Table B3; hTHP-1 assay containing 2% fetal bovine serum, gramicidin stimulation, IL-1β readout; read-out: hTHP-1 IC50
How it was run: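 IL-1β released into supernatants was read by HTRF after 2 h gramicidin (5 μM) challenge. Before challenge, compounds (3-fold dilutions, top 100 μM, 0.37% DMSO) were given 1 h on THP-1 cells differentiated with PMA (20 ng/ml, 16-18 h) and held in 2% FBS medium.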

IC50 | Compound
8 to 40 nM | COc1cc(-c2ccc3c(c2NC(=O)N=[S@@](N)(=O)c2cnc(C(C)(C)O)s2)CCC3)ccn1 [Example 784, (R)-2-(2-hydroxypropan-2-yl)-N′-((5-(2-methoxypyridin-4-yl)-2,3-dihydro-1H-inden-4-yl)carbamoyl)thiazole-5-sulfonimidamide]
40 to 200 nM | NS(=O)(=NC(=O)Nc1c2c(cc3c1CC3)CCC2)c1nn(C(F)F)cc1F (centres unmarked) [compound 734, 1-(Difluoromethyl)-4-fluoro-N′-((2,4,5,6-tetrahydro-1H-cyclobuta[f]inden-3-yl)carbamoyl)-1H-pyrazole-3-sulfonimidamide]
1000 to 5000 nM | CC(C)n1nc(S(N)(=O)=NC(=O)Nc2c3c(cc4c2C(=O)CC4)CCC3)cc1CO (centres unmarked) [compound 739, 5-(Hydroxymethyl)-1-isopropyl-N′-((3-oxo-1,2,3,5,6,7-hexahydro-s-indacen-4-yl)carbamoyl)-1H-pyrazole-3-sulfonimidamide]
200 to 1000 nM | C#CCCC1(CCC(=O)N(C)Cc2ccc([S@@](N)(=O)=NC(=O)Nc3c4c(cc5c3CCC5)CCC4)cc2)N=N1 [compound 771]
5000 to 30000 nM | CN1CCC(c2ccc(S(N)(=O)=NC(=O)Nc3c4c(cc5c3CCC5)CCC4)c(F)c2)C1 (centres unmarked) [compound 776, 2-Fluoro-N′-((1,2,3,5,6,7-hexahydro-s-indacen-4-yl)carbamoyl)-4-(1-methylpyrrolidin-3-yl)benzenesulfonimidamide]

More lines, now with the values behind:

Compound | IC50
CC(C)(O)c1sc(S(N)(=O)=NC(=O)Nc2c3c(cc4c2CCC4)CCC3)nc1CO (centres unmarked) [Example 767, N′-((1,2,3,5,6,7-hexahydro-s-indacen-4-yl)carbamoyl)-4-(hydroxymethyl)-5-(2-hydroxypropan-2-yl)thiazole-2-sulfonimidamide] | 40 to 200 nM
CC1c2c(csc2S(N)(=O)=NC(=O)Nc2c3c(cc4c2CCC4)CCC3)CN1C (centres unmarked) [Example 768, N′-((1,2,3,5,6,7-hexahydro-s-indacen-4-yl)carbamoyl)-5,6-dimethyl-5,6-dihydro-4H-thieno[3,4-c]pyrrole-1-sulfonimidamide] | 200 to 1000 nM
CN1CCc2sc(S(N)(=O)=NC(=O)Nc3c4c(cc5c3CC5)CCC4)c(F)c2C1 (centres unmarked) [Example 769, 3-Fluoro-5-methyl-N′-((2,4,5,6-tetrahydro-1H-cyclobuta[f]inden-3-yl)carbamoyl)-4,5,6,7-tetrahydrothieno[3,2-c]pyridine-2-sulfonimidamide] | 40 to 200 nM
NS(=O)(=NC(=O)Nc1c2c(cc3c1CC3)CCC2)c1sc2c(c1F)COCC2 (centres unmarked) [Example 770, 3-Fluoro-N′-((2,4,5,6-tetrahydro-1H-cyclobuta[f]inden-3-yl)caibamoyl)-6,7-dihydro-4H-thieno[3,2-c]pyran-2-sulfonimidamide] | 200 to 1000 nM
CC(C)(CO)c1ncc(S(N)(=O)=NC(=O)Nc2c3c(c(C#N)c4c2CCC4)CCC3)s1 (centres unmarked) [Example 772, N′-((8-cyano-1,2,3,5,6,7-hexahydro-s-indacen-4-yl)carbamoyl)-2-(1-hydroxy-2-methylpropan-2-yl)thiazole-5-sulfonimidamide] | 40 to 200 nM
NS(=O)(=NC(=O)Nc1c2c(cc3c1CC3)CCC2)c1cc2c(s1)CCN(CC(F)F)C2 (centres unmarked) [Example 773, 5-(2,2-Difluoroethyl)-N′-((2,4,5,6-tetrahydro-1H-cyclobuta[f]inden-3-yl)carbamoyl)-4,5,6,7-tetrahydrothieno[3,2-c]pyridine-2-sulfonimidamide] | 1000 to 5000 nM
COC1CCc2c(csc2S(N)(=O)=NC(=O)Nc2c3c(cc4c2CCC4)CCC3)C1 (centres unmarked) [Example 774, N′-((1,2,3,5,6,7-hexahydro-s-indacen-4-yl)carbamoyl)-5-methoxy-4,5,6,7-tetrahydrobenzo[c]thiophene-1-sulfonimidamide] | 1000 to 5000 nM
COC1CCc2csc(S(N)(=O)=NC(=O)Nc3c4c(cc5c3CCC5)CCC4)c2C1 (centres unmarked) [Example 775, N′-((1,2,3,5,6,7-hexahydro-s-indacen-4-yl)carbamoyl)-6-methoxy-4,5,6,7-tetrahydrobenzo[c]thiophene-1-sulfonimidamide] | 1000 to 5000 nM
CNCc1csc(S(N)(=O)=NC(=O)Nc2c3c(cc4c2CC4)CCC3)c1F (centres unmarked) [Example 777, 3-Fluoro-4-((methylamino)methyl)-N′-((2,4,5,6-tetrahydro-1H-cyclobuta[f]inden-3-yl)carbamoyl)thiophene-2-sulfonimidamide] | 40 to 200 nM
CNC1CCc2cc(S(N)(=O)=NC(=O)Nc3c4c(cc5c3CCC5)CCC4)sc2C1 (centres unmarked) [Example 778, N′-((1,2,3,5,6,7-hexahydro-s-indacen-4-yl)carbamoyl)-6-(methylamino)-4,5,6,7-tetrahydrobenzo[b]thiophene-2-sulfonimidamide] | 200 to 1000 nM
CNCc1csc(S(N)(=O)=NC(=O)Nc2c3c(cc4c2CCC4)CCC3)c1F (centres unmarked) [Example 779, 3-Fluoro-N′-((1,2,3,5,6,7-hexahydro-s-indacen-4-yl)carbamoyl)-4-((methylamino)methyl)thiophene-2-sulfonimidamide] | 40 to 200 nM
NS(=O)(=NC(=O)Nc1c2c(cc3c1CCC3)CCC2)c1cnc(C(O)(COCCOCc2ccccc2)COCCOCc2ccccc2)s1 (centres unmarked) [Example 780, N′-((1,2,3,5,6,7-hexahydro-s-indacen-4-yl)carbamoyl)-2-(7-hydroxy-1,13-diphenyl-2,5,9,12-tetraoxatridecan-7-yl)thiazole-5-sulfonimidamide] | 1000 to 5000 nM
NS(=O)(=NC(=O)Nc1c2c(cc3c1CC3)CCC2)c1cc2c(s1)CCNC2C(F)F (centres unmarked) [Example 781, 4-(Difluoromethyl)-N′-((2,4,5,6-tetrahydro-1H-cyclobuta[f]inden-3-yl)carbamoyl)-4,5,6,7-tetrahydrothieno[3,2-c]pyridine-2-sulfonimidamide] | 40 to 200 nM

same assay, conditions: Homo sapiens, THP-1, hTHP-1 assay containing 2% fetal bovine serum, Table B2, class symbols; read-out: IC50

IC50 | Compound
1000 to 5000 nM | CC(OC(F)F)c1ccc(S(N)(=O)=NC(=O)Nc2c3c(cc4c2CCC4)CCC3)cc1 (centres unmarked) [compound 452, 4-(1-(Difluoromethoxy)ethyl)-N′-((1,2,3,5,6,7-hexahydro-s-indacen-4-yl)carbamoyl)benzenesulfonimidamide]
1000 to 5000 nM | CNCC(C)(C)c1ccc(S(N)(=O)=NC(=O)Nc2c3c(cc4c2CCC4)CCC3)cc1 (centres unmarked) [compound 496, N′-((1,2,3,5,6,7-hexahydro-s-indacen-4-yl)carbamoyl)-4-(2-methyl-1-(methylamino)propan-2-yl)benzenesulfonimidamide]
40 to 200 nM | CNCc1csc(S(N)(=O)=NC(=O)Nc2c3c(cc4c2CCC4)CCC3)c1 (centres unmarked) [compound 672, N′-((1,2,3,5,6,7-hexahydro-s-indacen-4-yl)carbamoyl)-4-((methylamino)methyl)thiophene-2-sulfonimidamide]

same assay, conditions: Table B3; hTHP-1 assay containing 2% fetal bovine serum, gramicidin stimulation, IL-1β readout; read-out: hTHP-1 IC50

IC50 | Compound
1000 to 5000 nM | CC(NC1CCC1)c1ccc(S(N)(=O)=NC(=O)Nc2c3c(cc4c2CC4)CCC3)c(F)c1 (centres unmarked) [Example 846, (R/S, S)-4-(1-(cyclobutylamino)ethyl)-2-fIuoro-N′-((2,4,5,6-tetrahydro-1H-cyclobuta[f]inden-3-yl)carbamoyl)benzenesulfonimidamide]
200 to 1000 nM | NS(=O)(=NC(=O)Nc1c2c(cc3c1CCC3)CCC2)c1ccc(C2CCN2)cc1 (centres unmarked) [Example 863, (S/R, R)-4-(azetidin-2-yl)-N′-((1,2,3,5,6,7-hexahydro-s-indacen-4-yl)carbamoyl)benzenesulfonimidamide]

same assay, conditions: hTHP-1 assay containing 2% fetal bovine serum, Table B2, class symbols; read-out: IC50

IC50 | Compound
40 to 200 nM | (S)- and (R)-3-Fluoro-5-((methylamino)methyl)-N′-((2,4,5,6-tetrahydro-1H-cyclobuta[f]inden-3-yl)carbamoyl)thiophene-2-sulfonimidamide [Example 670]
1000 to 5000 nM | (S)- and (R)-3-Fluoro-5-((methylamino)methyl)-N′-((2,4,5,6-tetrahydro-1H-cyclobuta[f]inden-3-yl)carbamoyl)thiophene-2-sulfonimidamide [Example 671]
40 to 200 nM | N-(amino((R)-6-methoxy-6,7- dihydro-5H-pyrazolo[5,1- b][1,3]oxazin-3-yl)(oxo)-9,6- sulfaneylidene)-1,2,3,5,6,7- hexahydro-s-indacene-4-carboxamide [Example 472]

system: IL-1β production in hTHP-1 cells; assay: hTHP-1 assay containing 10% fetal bovine serum; format: cell-based, human; conditions: read-out: hTHP-1 IC50 in 10% FBS; hTHP-1 assay containing 10% fetal bovine serum, Table B4
Experimental: inhibition=100-100×[HCave−Readout/(HCave−LCave)] • 2. Fit the normalized data in a dose-response manner using XLfit, and calculate the compound concentration. Tables B1, B2, and B3 show the biological activity of compounds in hTHP-1 assay containing 2% fetal bovine serum. […] Key: <0.008 μM=“++++++”; ≥0.008 and <0.04 μM=“+++++”; ≥0.04 and <0.2 μM=“++++”; ≥0.2 and <1 μM=“+++”; ≥1 and <5 μM=“++”; ≥5 and <30 μM=“+”.

IC50 | Compound
40 to 200 nM | CC(C)(O)c1csc(S(N)(=O)=NC(=O)Nc2c3c(cc4c2CCC4)CCC3)c1F (single isomer, unassigned) [Example 880, (R) or (S)-3-fluoro-N′-((1,2,3,5,6,7-hexahydro-s-indacen-4-yl)carbamoyl)-4-(2-hydroxypropan-2-yl)thiophene-2-sulfonimidamide]
5000 to 30000 nM | CC(C)(O)c1csc(S(N)(=O)=NC(=O)Nc2c3c(cc4c2CCC4)CCC3)c1F (single isomer, unassigned) [Example 881, (S) or (R)-3-fluoro-N′-((1,2,3,5,6,7-hexahydro-s-indacen-4-yl)carbamoyl)-4-(2-hydroxypropan-2-yl)thiophene-2-sulfonimidamide]
8 to 40 nM | CC(C)(O)c1csc(S(N)(=O)=NC(=O)Nc2c3c(cc4c2CC4)CCC3)c1F (single isomer, unassigned) [Example 882, (R) or (S)-3-fluoro-4-(2-hydroxypropan-2-yl)-N′-((2,4,5,6-tetrahydro-1H-cyclobuta[f]inden-3-yl)carbamoyl)thiophene-2-sulfonimidamide]
